Read-outs that look alike come from different tables or passages of the source.
Legend:
human orexin-2 receptor = human orexin-2 receptor (Homo sapiens (Human), UniProt O43614); assay: In vitro assay: intracellular calcium measurements (FLIPR), antagonistic activity; assay type: cell-based; details: CHO cells, 3 nM orexin-A, marked values are geometric means of n = 2-6, read-out: IC50 OX2
human orexin-1 receptor = human orexin-1 receptor (Homo sapiens (Human), UniProt O43613); assay: as above; assay type: cell-based; details: CHO cells, 3 nM orexin-A, marked values are geometric means of n = 2-6, read-out: IC50 OX1
human orexin-1 receptor, sequence (O43613 whole entry): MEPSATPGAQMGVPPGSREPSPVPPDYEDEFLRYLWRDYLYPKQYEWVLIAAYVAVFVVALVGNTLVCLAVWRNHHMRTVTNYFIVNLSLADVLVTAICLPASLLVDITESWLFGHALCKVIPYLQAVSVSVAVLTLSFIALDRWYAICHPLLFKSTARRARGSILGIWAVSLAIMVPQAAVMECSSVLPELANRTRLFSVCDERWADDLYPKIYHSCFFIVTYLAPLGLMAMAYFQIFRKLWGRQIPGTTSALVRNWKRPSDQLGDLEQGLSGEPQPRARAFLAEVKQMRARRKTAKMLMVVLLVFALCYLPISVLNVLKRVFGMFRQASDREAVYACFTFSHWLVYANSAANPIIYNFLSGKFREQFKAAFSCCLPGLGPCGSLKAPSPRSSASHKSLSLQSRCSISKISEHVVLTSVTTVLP

[1] = compound incubation time of 10 min

human orexin-2 receptor, sequence (O43614 whole entry): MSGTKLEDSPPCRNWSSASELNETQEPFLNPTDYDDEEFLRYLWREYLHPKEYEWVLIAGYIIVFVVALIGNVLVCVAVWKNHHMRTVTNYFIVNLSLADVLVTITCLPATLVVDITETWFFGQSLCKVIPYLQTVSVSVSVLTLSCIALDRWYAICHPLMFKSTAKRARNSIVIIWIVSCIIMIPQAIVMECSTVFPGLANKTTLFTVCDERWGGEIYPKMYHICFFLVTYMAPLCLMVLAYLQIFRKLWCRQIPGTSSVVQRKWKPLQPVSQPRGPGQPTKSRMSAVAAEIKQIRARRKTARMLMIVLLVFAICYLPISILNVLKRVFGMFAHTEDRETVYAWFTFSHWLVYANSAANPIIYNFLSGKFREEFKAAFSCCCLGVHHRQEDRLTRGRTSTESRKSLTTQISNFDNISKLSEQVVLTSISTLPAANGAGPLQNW

Compound	IC50 (human orexin-2 receptor; compound incubation 120 min) [nM]	IC50 (human orexin-1 receptor; compound incubation 120 min) [nM]	IC50 (human orexin-2 receptor; [1]) [nM]	IC50 (human orexin-1 receptor; [1]) [nM]
COc1cccc(OC)c1C1CC(C)C(=O)N1Cc1ccc2sc(C)nc2c1 (stereo not drawn) [Example 393, 5-(2,6-dimethoxyphenyl)-3-methyl-1-((2-methylbenzo[d]thiazol-5-yl)methyl)pyrrolidin-2-one]	121	32		
COc1cccc(OC)c1C1CCC(=O)N1Cc1cccc(N2CCCCC2)c1 (stereo not drawn) [Example 129, 5-(2,6-dimethoxyphenyl)-1-(3-(piperidin-1-yl)benzyl)pyrrolidin-2-one]	858	198		
COc1ccnc(OC)c1C1CC(C)C(=O)N1Cc1cccc(-c2csc(C)n2)c1 (stereo not drawn) [Example 356, 5-(2,4-dimethoxypyridin-3-yl)-3-methyl-1-(3-(2-methylthiazol-4-yl)benzyl)pyrrolidin-2-one]	113	30		
COc1cccc(Cl)c1[C@@H]1C[C@H](F)C(=O)N1Cc1ccc(OC(F)(F)F)cc1 (racemic) [Example 302, rac-(3S*,5S*)-5-(2-chloro-6-methoxyphenyl)-3-fluoro-1-(4-(trifluoromethoxy)benzyl)pyrrolidin-2-one]	103	1380		
COc1cccc(OC)c1C1CCCC(=O)N1Cc1cccc(-c2ccccn2)c1F (stereo not drawn) [Example 37, 6-(2,6-dimethoxyphenyl)-1-(2-fluoro-3-(pyridin-2-yl)benzyl)piperidin-2-one]	64	72		
O=C1CCCC(c2c(F)cccc2Cl)N1Cc1ccc(OC(F)(F)F)cc1 (stereo not drawn) [Example 229, 6-(2-chloro-6-fluorophenyl)-1-(4-(trifluoromethoxy)benzyl)piperidin-2-one]			1190	2920
COc1cccc(OC)c1C1CCC(=O)N1Cc1cccc(-c2nccs2)c1 (stereo not drawn) [Example 124, 5-(2,6-dimethoxyphenyl)-1-(3-(thiazol-2-yl)benzyl)pyrrolidin-2-one]	89	23		
COc1cccc(OC)c1C1CCC(=O)N1Cc1cccc2ccccc12 (stereo not drawn) [Example 116, 5-(2,6-dimethoxyphenyl)-1-(naphthalen-1-ylmethyl)pyrrolidin-2-one]	291	789		
O=C1CCCCC(c2ccccc2-c2cncs2)N1Cc1cccc(-c2nccs2)c1 (stereo not drawn) [Example 451, 1-(3-(thiazol-2-yl)benzyl)-7-(2-(thiazol-5-yl)phenyl)azepan-2-one]	19	427		
COc1ccc(OC(F)(F)F)cc1CN1C(=O)C(C)CC1c1c(OC)cccc1OC (stereo not drawn) [Example 403, 5-(2,6-dimethoxyphenyl)-1-(2-methoxy-5-(trifluoromethoxy)benzyl)-3-methylpyrrolidin-2-one]	449	532		
COc1cccc(OC)c1C1CC(C)C(=O)N1Cc1ccc2[nH]ccc2c1 (stereo not drawn) [Example 392, 1-((1H-indol-5-yl)methyl)-5-(2,6-dimethoxyphenyl)-3-methylpyrrolidin-2-one]	1780	810		
COc1cccc(OC)c1C1CCCC(=O)N1Cc1nc2ccccc2s1 (stereo not drawn) [Example 31, 1-(benzo[d]thiazol-2-ylmethyl)-6-(2,6-dimethoxyphenyl)piperidin-2-one]	858	941		
COc1ccccc1[C@@H]1C[C@H](F)C(=O)N1Cc1ccc(OC(F)(F)F)cc1 (racemic) [Example 297, rac-(3S*,5S*)-3-fluoro-5-(2-methoxyphenyl)-1-(4-(trifluoromethoxy)benzyl)pyrrolidin-2-one]	568	1050		
COc1cccc(OC)c1C1CC(C)C(=O)N1Cc1ccc2ccccc2c1 (stereo not drawn) [Example 131, 5-(2,6-dimethoxyphenyl)-3-methyl-1-(naphthalen-2-ylmethyl)pyrrolidin-2-one]	455	27		
COc1cccc(OC)c1C1CCCC(=O)N1Cc1ccc(F)c(-c2ccccn2)c1 (stereo not drawn) [Example 41, 6-(2,6-dimethoxyphenyl)-1-(4-fluoro-3-(pyridin-2-yl)benzyl)piperidin-2-one]	26	18		
